What follows are compounds tested on human FXN (assay: EC50 assay: FXN mRNA expression by qRT-PCR in GM15850 cells after 48 hrs compound treatment). Conditions: 48 hrs incubation, hFXN expression normalized to hGAPDH (qRT-PCR), read-out: EC50 WT (nM, 48 hr).
Type: cell-based
How it was run: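 FXN transcript, normalized to GAPDH by TaqMan qRT-PCR, read out after 48 hrs of compound on GM15850 cells plated at 150,000 per well. Dosing used five 3-fold steps from 150 nM final, vehicle 0.01% DMSO.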
With `C=C(C)c1ccc(Oc2c(C)cc(F)cc2C)c(-c2cn(C)c(=O)c3[nH]c(C(=O)Nc4ccc(OCCOCCOCCOCCOCCOCCOCCOCCOCCNC(=O)CCNC(=O)c5nc(NC(=O)CCNC(=O)c6cc(NC(=O)c7nc(NC(=O)CCNC(=O)c8cc(NC(=O)c9nccn9C)cn8C)cn7C)cn6C)cn5C)cc4)cc23)c1` [Compound 197, N-(5-{[2-({2-[(2-{[26-(4-{14-[2-(4-fluoro-2,6-dimethylphenoxy)-5-(prop-1-en-2-yl)phenyl]-6-methyl-7-oxo-1H-pyrrolo[2,3-c]pyridine-2-amido}phenoxy)-3,6,9,12,15,18,21,24-octaoxahexacosan-1-yl]carbamoyl]ethyl)carbamoyl]-1-methylimidazol-4-yl]carbamoyl)ethyl]carbamoyl]-1-methylpyrrol-3-yl)-1-methyl-4-(3-{[1-methyl-4-(1-methylimidazole-2-amido)pyrrol-2-yl]formamido]propanamido)imidazole-2-carboxamide] the EC50 was 100 to 500 nM.

Same assay, conditions: Homo sapiens, 48 hrs incubation, hFXN expression normalized to hGAPDH (qRT-PCR), read-out: EC50 WT (nM, 48 hr)
`Cc1cc(F)cc(C)c1Oc1ccc(C(C)(C)O)cc1-c1cn(C)c(=O)c2[nH]c(C(=O)N3CCC(CN4CCN(CCOCCOCCOCCOCCOCCOCCNC(=O)CCNC(=O)c5nc(NC(=O)CCNC(=O)c6cc(NC(=O)c7nc(NC(=O)CCNC(=O)c8cc(NC(=O)c9nccn9C)cn8C)cn7C)cn6C)cn5C)CC4)CC3)cc12` [Compound 168] gave an EC50 of 100 to 500 nM. `Cc1cc(F)cc(C)c1Oc1ccc(C(C)(C)O)cc1-c1cn(C)c(=O)c2[nH]c(C(=O)N3CCN(C4CCN(CCOCCOCCOCCOCCC(=O)NCCCN(CCCNC(=O)CCNC(=O)c5nc(NC(=O)CCNC(=O)c6cc(NC(=O)c7nc(NC(=O)CCNC(=O)c8cc(NC(=O)c9nccn9C)cn8C)cn7C)cn6C)cn5C)CC(F)(F)F)CC4)CC3)cc12` [Compound 169] was tested, and the EC50 was 100 to 500 nM. Work on `Cc1cc(F)cc(C)c1Oc1ccc(C(C)(C)O)cc1-c1cn(C)c(=O)c2[nH]c(C(=O)N3CCC(N4CCN(CCOCCOCCOCCOCCC(=O)NCCCN(CCCNC(=O)CCNC(=O)c5nc(NC(=O)CCNC(=O)c6cc(NC(=O)c7nc(NC(=O)CCNC(=O)c8cc(NC(=O)c9nccn9C)cn8C)cn7C)cn6C)cn5C)CC(F)(F)F)CC4)CC3)cc12` [Compound 170] yielded an EC50 greater than 500 nM. Work on `Cc1cc(F)cc(C)c1Oc1ccc(C(C)(C)O)cc1-c1cn(C)c(=O)c2[nH]c(C(=O)NC3CCN(CC#CC#CC4CCN(CCOCCOCCOCCOCCOCCOCCOCCNC(=O)CCNC(=O)c5nc(NC(=O)CCNC(=O)c6cc(NC(=O)c7nc(NC(=O)CCNC(=O)c8cc(NC(=O)c9nccn9C)cn8C)cn7C)cn6C)cn5C)CC4)CC3)cc12` [Compound 175] yielded an EC50 of less than 100 nM. In the case of `Cc1cc(F)cc(C)c1Oc1ccc(C(C)(C)O)cc1-c1cn(C)c(=O)c2[nH]c(C(=O)NC3CCN(CC#CC#CC4CCN(CCOCCOCCNC(=O)CCNC(=O)c5nc(NC(=O)CCNC(=O)c6cc(NC(=O)c7nc(NC(=O)CCNC(=O)c8cc(NC(=O)c9nccn9C)cn8C)cn7C)cn6C)cn5C)CC4)CC3)cc12` [Compound 176], the EC50 was less than 100 nM. In the case of `Cc1cc(F)cc(C)c1Oc1ccc(C(C)(C)O)cc1-c1cn(C)c(=O)c2[nH]c(C(=O)Nc3ccc(OCCOCCOCCOCCOCCOCCOCCOCCOCCOCCNC(=O)CCNC(=O)c4nc(NC(=O)CCNC(=O)c5cc(NC(=O)c6nc(NC(=O)CCNC(=O)c7cc(NC(=O)c8nccn8C)cn7C)cn6C)cn5C)cn4C)cc3)cc12` [Compound 195], the EC50 was less than 100 nM. For `Cc1cc(F)cc(C)c1Oc1ccc(C(C)(C)O)cc1-c1cn(C)c(=O)c2[nH]c(C(=O)Nc3ccc(OCCOCCOCCOCCOCCOCCOCCOCCOCCNC(=O)CCNC(=O)c4nc(NC(=O)CCNC(=O)c5cc(NC(=O)c6nc(NC(=O)CCN)cn6C)cn5C)cn4C)cc3)cc12` [Compound 199, 4-(3-aminopropanamido)-N-(5-{[2-({2-[(2-{[26-(4-{4-[2-(4-fluoro-2,6-dimethylphenoxy)-5-(2-hydroxypropan-2-yl)phenyl]-6-methyl-7-oxo-1H-pyrrolo[2,3-c]pyridine-2-amido}phenoxy)-3,6,9,12,15,18,21,24-octaoxahexacosan-1-yl]carbamoyl}ethyl)carbamoyl]-1-methylimidazol-4-yl}carbamoyl)ethyl]carbamoyl}-1-methylpyrrol-3-yl)-1-methylimidazole-2-carboxamide], the EC50 was greater than 500 nM. `Cc1sc2c(c1C)C(c1ccc(NC(=O)CCCCCCCCCCCCCCCNCCc3c[nH]c4ccccc34)cc1)=N[C@@H](CC(=O)Nc1ccc(OCCOCCOCCOCCOCCOCCOCCOCCOCCNC(=O)CCNC(=O)c3nc(NC(=O)CCNC(=O)c4cc(NC(=O)c5nc(NC(=O)CCNC(=O)c6cc(NC(=O)c7nccn7C)cn6C)cn5C)cn4C)cn3C)cc1)c1nnc(C)n1-2` [Compound 200] showed an EC50 greater than 500 nM. Compound `CCCCCCCC(=O)N(CC#CC#Cc1ccc(NC(=O)C[C@@H]2N=C(c3ccc(Cl)cc3)c3c(sc(C)c3C)-n3c(C)nnc32)cc1)CCOCCOCCOCCOCCOCCNC(=O)CCNC(=O)c1nc(NC(=O)CCNC(=O)c2cc(NC(=O)c3nc(NC(=O)CCNC(=O)c4cc(NC(=O)c5nccn5C)cn4C)cn3C)cn2C)cn1C` [Compound 201] has an EC50 greater than 500 nM. With `CCCCCCCC(=O)Nc1ccc(C2=N[C@@H](CC(=O)Nc3ccc(OCCOCCOCCOCCOCCOCCOCCOCCOCCNC(=O)CCNC(=O)c4nc(NC(=O)CCNC(=O)c5cc(NC(=O)c6nc(NC(=O)CCNC(=O)c7cc(NC(=O)c8nccn8C)cn7C)cn6C)cn5C)cn4C)cc3)c3nnc(C)n3-c3sc(C)c(C)c32)cc1` [Compound 203] the EC50 was 100 to 500 nM. With `CCCCCCCCCCCCCCCC(=O)Nc1ccc(C2=N[C@@H](CC(=O)Nc3ccc(OCCOCCOCCOCCOCCOCCOCCOCCOCCNC(=O)CCNC(=O)c4nc(NC(=O)CCNC(=O)c5cc(NC(=O)c6nc(NC(=O)CCNC(=O)c7cc(NC(=O)c8nccn8C)cn7C)cn6C)cn5C)cn4C)cc3)c3nnc(C)n3-c3sc(C)c(C)c32)cc1` [Compound 204] the EC50 was greater than 500 nM. `Cc1cc(F)cc(C)c1Oc1ccc(C(C)(C)O)cc1-c1cn(C)c(=O)c2[nH]c(C(=O)Nc3ccc(OCCOCCOCCOCCOCCOCCOCCOCCNC(=O)CCNC(=O)c4nc(NC(=O)CCNC(=O)c5cc(NC(=O)c6nc(NC(=O)CCNC(=O)c7cc(NC(=O)c8nccn8C)cn7C)cn6C)cn5C)cn4C)cc3)cc12` [Compound 205, N-(5-{[2-({2-[(2-{[23-(4-{4-[2-(4-fluoro-2,6-dimethylphenoxy)-5-(2-hydroxypropan-2-yl)phenyl]-6-methyl-7-oxo-1H-pyrrolo[2,3-c]pyridine-2-amido}phenoxy)-3,6,9,12,15,18,21-heptaoxatricosan-1-yl]carbamoyl}ethyl)carbamoyl]-1-methylimidazol-4-yl}carbamoyl)ethyl]carbamoyl}-1-methylpyrrol-3-yl)-1-methyl-4-(3-{[1-methyl-4-(1-methylimidazole-2-amido)pyrrol-2-yl]formamido}propanamido)imidazole-2-carboxamide] was tested, and the EC50 was less than 100 nM. For `Cn1cc(NC(=O)c2nc(NC(=O)CCNC(=O)c3cc(NC(=O)c4nccn4C)cn3C)cn2C)cc1C(=O)NCCC(=O)Nc1cn(C)c(C(=O)NCCC(=O)NCCOCCOCCOCCOCCOCCOCCOCCOCCOc2ccc(NC(=O)c3cc4c(-c5cc(S(C)(=O)=O)ccc5Oc5ccc(F)cc5F)cn(C)c(=O)c4[nH]3)cc2)n1` [Compound 207, N-(5-{[2-({2-[(2-{[26-(4-{14-[2-(2,4-difluorophenoxy)-5-methanesulfonylphenyl]-6-methyl-7-oxo-1H-pyrrolo[2,3-c]pyridine-2-amido}phenoxy)-3,6,9,12,15,18,21,24-octaoxahexacosan-1-yl]carbamoyl]ethyl)carbamoyl]-1-methylimidazol-4-yl}carbamoyl)ethyl]carbamoyl}-1-methylpyrrol-3-yl)-1-methyl-4-(3-{[1-methyl-4-(1-methylimidazole-2-amido)pyrrol-2-yl]formamido]propanamido)imidazole-2-carboxamide], the EC50 was less than 100 nM. `COCCOCCOCCOCCOCCOCCOc1cc(NC(=O)C[C@@H]2N=C(c3ccc(Cl)cc3)c3c(sc(C)c3C)-n3c(C)nnc32)ccc1OCCOCCOCCOCCOCCOCCOCCOCCOCCNC(=O)CCNC(=O)c1nc(NC(=O)CCNC(=O)c2cc(NC(=O)c3nc(NC(=O)CCNC(=O)c4cc(NC(=O)c5nccn5C)cn4C)cn3C)cn2C)cn1C` [Compound 211] showed an EC50 of 100 to 500 nM. For `Cc1cc(F)cc(C)c1Oc1ccc(C(C)(C)O)cc1-c1cn(C)c(=O)c2[nH]c(C(=O)Nc3ccc(OCCOCCOCCOCCOCCOCCOCCOCCOCCNC(=O)c4cc(NC(=O)c5nc(NC(=O)c6cc(NC(=O)c7ccc8nc(-c9nccn9C)[nH]c8c7)cn6C)cn5C)cn4C)cc3)cc12` [Compound 215, N-[5-({2-[(5-{[26-(4-{4-[2-(4-fluoro-2,6-dimethylphenoxy)-5-(2-hydroxypropan-2-yl)phenyl]-6-methyl-7-oxo-1H-pyrrolo[2,3-c]pyridine-2-amido}phenoxy)-3,6,9,12,15,18,21,24-octaoxahexacosan-1-yl]carbamoyl}-1-methylpyrrol-3-yl)carbamoyl]-1-methylimidazol-4-yl]carbamoyl)-1-methylpyrrol-3-yl]-2-(1-methylimidazol-2-yl)-3H-1,3-benzodiazole-5-carboxamide], the EC50 was greater than 500 nM. In the case of `Cc1cc(F)cc(C)c1Oc1ccc(C(C)(C)O)cc1-c1cn(C)c(=O)c2[nH]c(C(=O)Nc3ccc(OCCOCCOCCOCCOCCOCCOCCOCCn4cc(CNC(=O)c5nc(NC(=O)CCNC(=O)c6cc(NC(=O)c7nc(NC(=O)CCNC(=O)c8cc(NC(=O)c9nccn9C)cn8C)cn7C)cn6C)cn5C)nn4)cc3)cc12` [Compound 217, N-({1-[23-(4-{4-[2-(4-fluoro-2,6-dimethylphenoxy)-5-(2-hydroxypropan-2-yl)phenyl]-6-methyl-7-oxo-1H-pyrrolo[2,3-c]pyridine-2-amido}phenoxy)-3,6,9,12,15,18,21-heptaoxatricosan-1-yl]-1,2,3-triazol-4-yl}methyl)-1-methyl-4-[3-({1-methyl-4-[1-methyl-4-(3-{[1-methyl-4-(1-methylimidazole-2-amido)pyrrol-2-yl]formamido}propanamido)imidazole-2-amido]pyrrol-2-yl}formamido)propanamido]imidazole-2-carboxamide], the EC50 was less than 100 nM.

From US20240124491A1, “METHODS AND COMPOUNDS FOR TREATING FRIEDREICH'S ATAXIA” (Design Therapeutics, Inc., priority 2021, published 2024)
